Experimental findings from US20210345614A1, “APPLICATION OF 7-CARBOXYBENZO[1,2,3]THIADIAZOLE AMIDES AS PLANT STIMULANTS” (ADAM MICKIEWICZ UNIVERSITY FOUNDATION, priority 2015, published 2021) are described below.

Molecules are shown by their SMILES.

The test system of this experiment is Pyrenophora teres. The experiment in a line: Field test on barley, fungal infection by Pyrenophora teres. The experiment is classed as in vivo, Hordeum vulgare (spring). The procedure: The test was conducted on a variety of barley Hordeum vulgare (spring). As such, six applications of the active substance solution was made. The study was conducted on fields of about 25 m^2 in quadruplicate for each combination tested. […] (with the addition of commercial adjuvant) followed by treatment with common fungicide (tebukonazole in formulation containing 250 g of active substance to be applied per 1 ha) in reducing infection of fungi Pyrenophora teres in barley (Hordeum vulgare (spring)) was performed. […] Six applications of the active substance BTHWA solution were made. As a control, one application of fungicide was performed at the time as indicated on the product label. The study was conducted on fields of about 25 m^2 in quadruplicate for each combination tested. […] The fungicide was applied in an amount of 33% its recommended dose (83 g/ha). Six applications of the active substance BTHWA solution were made. As a control, one application of fungicide was performed at the time as indicated on the product label. The study was conducted on fields of about 25 m^2 in quadruplicate for each combination tested.

[1] abbreviates: Example 29: tebukonazole 1x 250 g/ha alone, or BTHWA 20 mg/L (six applications) + tebukonazole 1x 125 g/ha.
Where [2] appears, read: Example 30: tebukonazole 1x 250 g/ha alone, or BTHWA 20 mg/L (six applications) + tebukonazole 1x, table prints 125 g/ha, text 83 g/ha.

As for `CC(C)(C)C(O)(CCc1ccc(Cl)cc1)Cn1cncn1` (racemic) [tebukonazole, (RS)-1-(4-chlorophenyl)-4,4-dimethyl-3-(1H, 1,2,4-triazol-1-ylmethyl)pentan-3-ol], under setting [1], the “% efficacy” value turned out to be 90.87% and the “% of infection” value was found to be 6.00%. Further, under setting [2], the “% efficacy” value is given as 90.87% and the “% of infection” value is listed as 6.00%.
